Here are results for four compounds from PubChem BioAssay (NCI).

As a reminder, the TGI is the concentration giving total growth inhibition.

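1) Cells in 96-well plates. 2) Compound, 48 h, 5 concentrations. 3) Linear interpolation between surrounding doses. 4) Unreached endpoint = highest concentration. TGI marks complete inhibition of growth.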 Some results are limits rather than exact numbers.

In the first test the test system is 786-0 renal. The test can be described thus: DTP human tumour cell line panel, 48 h.
As to `CC1(O)CC(C(F)(F)F)(C(F)(F)F)OC1=O` (stereo not drawn), the TGI was above 10 µM.
For the compound `CC1=C2C(=O)NN=C2CCN1c1ccc(Br)cc1`, the TGI is above 100 µM.
Same read-out and setting: the same measure for `O=C(NNC(=S)Nc1ccc(Cl)cc1)c1cc(-c2ccccc2)nc2ccccc12`: 17.6 µM; for `COC(=O)C(/C(=N/NC(N)=O)C(=O)Nc1ccc(C)cc1)c1nc2ccc([N+](=O)[O-])cc2[nH]c1=O` (stereo not drawn): above 100 µM.

For another test, the system named is A498 renal. The test can be described thus: DTP human tumour cell line panel, 48 h.
Compound `CC1(O)CC(C(F)(F)F)(C(F)(F)F)OC1=O` (stereo not drawn) yielded a TGI above 10 µM.
The compound `CC1=C2C(=O)NN=C2CCN1c1ccc(Br)cc1` gave a TGI above 100 µM.
Still for that read-out and setting: the same measure for `COC(=O)C(/C(=N/NC(N)=O)C(=O)Nc1ccc(C)cc1)c1nc2ccc([N+](=O)[O-])cc2[nH]c1=O` (stereo not drawn): above 100 µM.

The test system of another test is A549 NSCLC. The experiment in a line: DTP human tumour cell line panel, 48 h.
On to `CC1(O)CC(C(F)(F)F)(C(F)(F)F)OC1=O` (stereo not drawn), for which the TGI was above 10 µM.
Still for that read-out and setting: the same measure for `CC1=C2C(=O)NN=C2CCN1c1ccc(Br)cc1`: above 100 µM; for `O=C(NNC(=S)Nc1ccc(Cl)cc1)c1cc(-c2ccccc2)nc2ccccc12`: 21.3 µM; for `COC(=O)C(/C(=N/NC(N)=O)C(=O)Nc1ccc(C)cc1)c1nc2ccc([N+](=O)[O-])cc2[nH]c1=O` (stereo not drawn): above 100 µM.

For the next test, the system named is ACHN renal. The test can be described thus: DTP human tumour cell line panel, 48 h.
The compound `CC1(O)CC(C(F)(F)F)(C(F)(F)F)OC1=O` (stereo not drawn) registered a TGI above 10 µM.
Still for that read-out and setting: in the case of `CC1=C2C(=O)NN=C2CCN1c1ccc(Br)cc1` it was above 100 µM; in that of `O=C(NNC(=S)Nc1ccc(Cl)cc1)c1cc(-c2ccccc2)nc2ccccc12`, 22.7 µM.

Another test has as its system BT-549 breast. The experiment in a line: DTP human tumour cell line panel, 48 h.
In turn, `CC1(O)CC(C(F)(F)F)(C(F)(F)F)OC1=O` (stereo not drawn) had a TGI above 10 µM.
On the same count and under the same terms, in the case of `CC1=C2C(=O)NN=C2CCN1c1ccc(Br)cc1` it was 75.1 µM.
For the compound `O=C(NNC(=S)Nc1ccc(Cl)cc1)c1cc(-c2ccccc2)nc2ccccc12`, the TGI worked out at 19.2 µM.
`COC(=O)C(/C(=N/NC(N)=O)C(=O)Nc1ccc(C)cc1)c1nc2ccc([N+](=O)[O-])cc2[nH]c1=O` (stereo not drawn) came in with a TGI above 100 µM.

Another test has as its system CAKI-1 renal. The experiment in a line: DTP human tumour cell line panel, 48 h.
The compound `CC1(O)CC(C(F)(F)F)(C(F)(F)F)OC1=O` (stereo not drawn) showed a TGI above 10 µM.
The same measure, in the same setting: the same measure for `CC1=C2C(=O)NN=C2CCN1c1ccc(Br)cc1`: above 100 µM.
Still for that read-out and setting: in the case of `O=C(NNC(=S)Nc1ccc(Cl)cc1)c1cc(-c2ccccc2)nc2ccccc12` it was 20.6 µM; in that of `COC(=O)C(/C(=N/NC(N)=O)C(=O)Nc1ccc(C)cc1)c1nc2ccc([N+](=O)[O-])cc2[nH]c1=O` (stereo not drawn), above 100 µM.

In a further test the test system is CCRF-CEM leukemia. The experiment in a line: DTP human tumour cell line panel, 48 h.
In turn, `CC1(O)CC(C(F)(F)F)(C(F)(F)F)OC1=O` (stereo not drawn) returned a TGI above 10 µM.
The same measure, in the same setting: the same measure for `CC1=C2C(=O)NN=C2CCN1c1ccc(Br)cc1`: 8.26 µM; for `O=C(NNC(=S)Nc1ccc(Cl)cc1)c1cc(-c2ccccc2)nc2ccccc12`: 6.91 µM.

Another test has as its system COLO 205 colon. The experiment in a line: DTP human tumour cell line panel, 48 h.
In the case of `CC1(O)CC(C(F)(F)F)(C(F)(F)F)OC1=O` (stereo not drawn), the TGI is above 10 µM.
Compound `CC1=C2C(=O)NN=C2CCN1c1ccc(Br)cc1` returned a TGI above 100 µM.
Take `O=C(NNC(=S)Nc1ccc(Cl)cc1)c1cc(-c2ccccc2)nc2ccccc12`: the TGI turned out to be 18.2 µM.

The subject of the next test is DU-145 prostate. The experiment in a line: DTP human tumour cell line panel, 48 h.
`CC1(O)CC(C(F)(F)F)(C(F)(F)F)OC1=O` (stereo not drawn): the TGI is above 10 µM.
On the same count and under the same terms, in the case of `CC1=C2C(=O)NN=C2CCN1c1ccc(Br)cc1` it was above 100 µM.
Still for that read-out and setting: in the case of `O=C(NNC(=S)Nc1ccc(Cl)cc1)c1cc(-c2ccccc2)nc2ccccc12` it was 16.5 µM.

In another test the test system is EKVX NSCLC. The test can be described thus: DTP human tumour cell line panel, 48 h.
As to `CC1(O)CC(C(F)(F)F)(C(F)(F)F)OC1=O` (stereo not drawn), the TGI is above 10 µM.
Same read-out and setting: the same measure for `CC1=C2C(=O)NN=C2CCN1c1ccc(Br)cc1`: above 100 µM.
The same measure, in the same setting: the same measure for `COC(=O)C(/C(=N/NC(N)=O)C(=O)Nc1ccc(C)cc1)c1nc2ccc([N+](=O)[O-])cc2[nH]c1=O` (stereo not drawn): above 100 µM.

The next test deals with HCC-2998 colon. The experiment in a line: DTP human tumour cell line panel, 48 h.
The compound `CC1(O)CC(C(F)(F)F)(C(F)(F)F)OC1=O` (stereo not drawn) came in with a TGI above 10 µM.
Same read-out and setting: in the case of `O=C(NNC(=S)Nc1ccc(Cl)cc1)c1cc(-c2ccccc2)nc2ccccc12` it was 11.5 µM; in that of `COC(=O)C(/C(=N/NC(N)=O)C(=O)Nc1ccc(C)cc1)c1nc2ccc([N+](=O)[O-])cc2[nH]c1=O` (stereo not drawn), above 100 µM.

Another test deals with HCT-116 colon. The experiment in a line: DTP human tumour cell line panel, 48 h.
Take `CC1(O)CC(C(F)(F)F)(C(F)(F)F)OC1=O` (stereo not drawn): the TGI is above 10 µM.
On the same count and under the same terms, in the case of `CC1=C2C(=O)NN=C2CCN1c1ccc(Br)cc1` it was above 100 µM; in that of `O=C(NNC(=S)Nc1ccc(Cl)cc1)c1cc(-c2ccccc2)nc2ccccc12`, 13.5 µM; in that of `COC(=O)C(/C(=N/NC(N)=O)C(=O)Nc1ccc(C)cc1)c1nc2ccc([N+](=O)[O-])cc2[nH]c1=O` (stereo not drawn), above 100 µM.

The next test has as its system HCT-15 colon. The experiment in a line: DTP human tumour cell line panel, 48 h.
For `CC1(O)CC(C(F)(F)F)(C(F)(F)F)OC1=O` (stereo not drawn), the TGI is above 10 µM.
Same read-out and setting: the same measure for `CC1=C2C(=O)NN=C2CCN1c1ccc(Br)cc1`: above 100 µM; for `O=C(NNC(=S)Nc1ccc(Cl)cc1)c1cc(-c2ccccc2)nc2ccccc12`: 14.9 µM.
The same measure, in the same setting: in the case of `COC(=O)C(/C(=N/NC(N)=O)C(=O)Nc1ccc(C)cc1)c1nc2ccc([N+](=O)[O-])cc2[nH]c1=O` (stereo not drawn) it was above 100 µM.

Another test relates to HL-60(TB) leukemia. The experiment in a line: DTP human tumour cell line panel, 48 h.
Consider `CC1=C2C(=O)NN=C2CCN1c1ccc(Br)cc1`, for which the TGI is above 100 µM.

The test system of a further test is HOP-62 NSCLC. The experiment in a line: DTP human tumour cell line panel, 48 h.
Compound `CC1(O)CC(C(F)(F)F)(C(F)(F)F)OC1=O` (stereo not drawn) returned a TGI above 10 µM.
On the same count and under the same terms, the same measure for `CC1=C2C(=O)NN=C2CCN1c1ccc(Br)cc1`: above 100 µM; for `O=C(NNC(=S)Nc1ccc(Cl)cc1)c1cc(-c2ccccc2)nc2ccccc12`: 19.6 µM.
Consider `COC(=O)C(/C(=N/NC(N)=O)C(=O)Nc1ccc(C)cc1)c1nc2ccc([N+](=O)[O-])cc2[nH]c1=O` (stereo not drawn), for which the TGI is above 100 µM.

Another test concerns HOP-92 NSCLC. The test can be described thus: DTP human tumour cell line panel, 48 h.
For `CC1(O)CC(C(F)(F)F)(C(F)(F)F)OC1=O` (stereo not drawn), the TGI is above 10 µM.
Same read-out and setting: in the case of `CC1=C2C(=O)NN=C2CCN1c1ccc(Br)cc1` it was above 100 µM; in that of `O=C(NNC(=S)Nc1ccc(Cl)cc1)c1cc(-c2ccccc2)nc2ccccc12`, 13.6 µM.
